Measured values from patent US9822147B2, “Methods of treating ophthalmic diseases using NPR-B agonists” (priority 2009, dated 2017).
Numbered stars: 1 amine (or outer) side, 2 acyl side, 3 side chain; on linkers, the order of the positions; unused ones are H or OH. Square brackets hold non-standard residues; d marks the D form. Peptide text beside a SMILES is read from it. * marks the point of attachment. X12 = CC(C)(C)CNC[C@@H](N[*:1])C(=O)[*:2]; Phe(4-Cl) = N[C@@H](Cc1ccc(Cl)cc1)C(=O)O; Phe(4-F) = N[C@@H](Cc1ccc(F)cc1)C(=O)O; Phe(4-Me) = Cc1ccc(C[C@H](N)C(=O)O)cc1; Pro(4R-NH2) = N[C@H]1CN[C@H](C(=O)O)C1; X2 = O=C([C@H]1CCCN([*:1])C1)[*:2]; X1 = CCCCCCCCN1CCC[C@H](C(=O)*)C1; dDap(Me2) = CN(C)C[C@@H](N)C(=O)O; Hyp = O=C(O)[C@@H]1C[C@@H](O)CN1; NMeL = CN[C@@H](CC(C)C)C(=O)O; Ac6c = NC1(C(=O)O)CCCCC1; Octanoyl = CCCCCCCC(=O)*; Api = NC1(C(=O)O)CCNCC1

What follows are compounds tested against T1, NPR-B (Homo sapiens, UniProt P20594) (assay: NPR-B induced production of cyclic GMP in human glaucoma trabecular meshwork cells (GTM-3)). Settings: group by EC50 and Emax (CNP = 100%); Table 4; read-out: Activity (group), NPR-B activation assayed with GTM-3 cells.
T1 construct: a functional assay using endogenously NPR-B expressing GTM-3 cells; endogenous in cells; host or cells: GTM-3 (human glaucoma trabecular meshwork cells)
T1 sequence (P20594 23-1047): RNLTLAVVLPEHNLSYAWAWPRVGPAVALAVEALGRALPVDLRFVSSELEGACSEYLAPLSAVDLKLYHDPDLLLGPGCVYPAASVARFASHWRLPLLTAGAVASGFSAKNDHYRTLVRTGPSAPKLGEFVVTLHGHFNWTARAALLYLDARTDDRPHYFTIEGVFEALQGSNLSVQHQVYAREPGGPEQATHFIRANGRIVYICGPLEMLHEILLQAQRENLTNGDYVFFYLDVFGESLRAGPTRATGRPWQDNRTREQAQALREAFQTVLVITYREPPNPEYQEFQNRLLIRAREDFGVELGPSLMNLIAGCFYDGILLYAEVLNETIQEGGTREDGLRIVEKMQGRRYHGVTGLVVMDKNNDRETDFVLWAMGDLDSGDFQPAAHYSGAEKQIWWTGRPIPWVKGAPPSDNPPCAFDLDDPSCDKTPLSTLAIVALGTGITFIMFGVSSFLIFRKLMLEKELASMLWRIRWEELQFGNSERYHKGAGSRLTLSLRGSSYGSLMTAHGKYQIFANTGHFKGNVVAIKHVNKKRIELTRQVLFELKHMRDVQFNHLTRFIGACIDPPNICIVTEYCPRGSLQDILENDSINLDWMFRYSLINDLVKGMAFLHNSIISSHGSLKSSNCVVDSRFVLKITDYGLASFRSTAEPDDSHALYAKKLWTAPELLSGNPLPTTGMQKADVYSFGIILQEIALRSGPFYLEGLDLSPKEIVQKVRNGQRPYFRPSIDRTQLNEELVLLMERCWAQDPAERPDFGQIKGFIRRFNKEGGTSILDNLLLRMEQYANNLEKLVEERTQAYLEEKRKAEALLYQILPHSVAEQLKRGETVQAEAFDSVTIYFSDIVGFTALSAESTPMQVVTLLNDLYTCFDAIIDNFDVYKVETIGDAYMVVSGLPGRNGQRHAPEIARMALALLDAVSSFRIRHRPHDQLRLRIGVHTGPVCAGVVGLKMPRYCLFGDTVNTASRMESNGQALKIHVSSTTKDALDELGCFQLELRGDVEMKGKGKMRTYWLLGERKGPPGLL
Type: cell-based

EC50, < 1000 nM:
CCCCc1cnc(Nc2ccc(C(=O)N[C@@H](Cc3ccccc3)C(=O)N[C@H](CC(C)C)C(=O)N[C@@H](CC(C)C)C(=O)N3C[C@H](O)C[C@H]3C(=O)N(C)[C@@H](CC(C)C)C(=O)N[C@@H](CC(=O)O)C(=O)N[C@@H](CCCNC(=N)N)C(=O)N[C@H](C(N)=O)[C@@H](C)CC)cc2)s1 [JAL-1380, (AR-201-68)-Phe-leu-Leu-Hyp-Nml-Asp-Arg-Ile-NH2] (HELM PEPTIDE1{[CCCCc1cnc(Nc2ccc(C(=O)[*:2])cc2)s1].F.[dL].L.[Hyp].[meL].D.R.I.[am]}$$$$V2.0)
CCCCc1cnc(N2CCC[C@H](C(=O)N[C@@H](Cc3ccccc3)C(=O)N[C@H](CC(C)C)C(=O)N[C@@H](CC(C)C)C(=O)N3C[C@H](O)C[C@H]3C(=O)N(C)[C@@H](CC(C)C)C(=O)N[C@@H](CC(=O)O)C(=O)N[C@@H](CCCNC(=N)N)C(=O)N[C@H](C(N)=O)[C@@H](C)CC)C2)s1 [JAL-1382, Sbt-Sni-Phe-leu-Leu-Hyp-Nml-Asp-Arg-Ile-NH2] (HELM PEPTIDE1{[CCCCc1cnc(N2CCC[C@H](C(=O)[*:2])C2)s1].F.[dL].L.[Hyp].[meL].D.R.I.[am]}$$$$V2.0)
CCCCCCCC(=O)N1CCC[C@H](C(=O)N[C@@H](Cc2ccccc2)C(=O)N[C@H](CC(C)C)C(=O)N[C@@H](CC(C)C)C(=O)N2C[C@H](O)C[C@H]2C(=O)N(C)[C@@H](CC(C)C)C(=O)N[C@H](C(=O)N[C@@H](CCCNC(=N)N)C(=O)N[C@H](C(N)=O)[C@@H](C)CC)C(C)C)C1 [JAL-1398, Occ-Sni-Phe-leu-Leu-Hyp-Nml-Val-Arg-Ile-NH2] (HELM PEPTIDE1{[CCCCCCCC(=O)[*:2]].[O=C([C@H]1CCCN([*:1])C1)[*:2]].F.[dL].L.[Hyp].[meL].V.R.I.[am]}$$$$V2.0)
CCCCCCCC(=O)N1CCC[C@H](C(=O)N[C@@H](Cc2ccccc2)C(=O)N[C@H](CC(C)C)C(=O)N[C@@H](CC(C)C)C(=O)N2C[C@H](N)C[C@H]2C(=O)N(C)[C@@H](CC(C)C)C(=O)N[C@H](C(=O)N[C@@H](CCCNC(=N)N)C(=O)N[C@H](C(N)=O)[C@@H](C)CC)C(C)C)C1 [JAL-1401, Occ-Sni-Phe-leu-Leu-Tap-Nml-Val-Arg-Ile-NH2] (Octanoyl-[X2]F[dL]L[Pro(4R-NH2)][NMeL]VRI-NH2)
CCCCCCCC(=O)N1CCC[C@H](C(=O)N[C@@H](Cc2ccccc2)C(=O)N[C@H](CN(C)C)C(=O)N[C@@H](CC(C)C)C(=O)N2C[C@H](N)C[C@H]2C(=O)N(C)[C@@H](CC(C)C)C(=O)N[C@H](C(=O)N[C@@H](CCCNC(=N)N)C(=O)N[C@H](C(N)=O)[C@@H](C)CC)C(C)C)C1 [JAL-1403, Occ-Sni-Phe-dap(Me2)-Leu-Tap-Nml-Val-Arg-Ile-NH2] (Octanoyl-[X2]F[dDap(Me2)]L[Pro(4R-NH2)][NMeL]VRI-NH2)
CCCCCCCCN1CCC[C@H](C(=O)N[C@@H](Cc2ccccc2)C(=O)N[C@H](CN(C)C)C(=O)N[C@@H](CC(C)C)C(=O)N2C[C@H](N)C[C@H]2C(=O)N(C)[C@@H](CC(C)C)C(=O)N[C@H](C(=O)N[C@@H](CCCNC(=N)N)C(=O)N[C@H](C(N)=O)[C@@H](C)CC)C(C)C)C1 [JAL-1405, Oct-Sni-Phe-dap(Me2)-Leu-Tap-Nml-Val-Arg-Ile-NH2] (X1-F[dDap(Me2)]L[Pro(4R-NH2)][NMeL]VRI-NH2)
CCCCCCCC(=O)N[C@H](C)C(=O)N[C@@H](Cc1ccccc1)C(=O)N[C@H](CC(C)C)C(=O)N[C@@H](CC(C)C)C(=O)N1C[C@H](O)C[C@H]1C(=O)N(C)[C@@H](CC(C)C)C(=O)N[C@@H](CC(=O)O)C(=O)N[C@@H](CCCNC(=N)N)C(=O)NC(C)(CC(C)C)C(N)=O (stereo partly drawn) [JAL-1414, Occ-ala-Phe-leu-Leu-Hyp-Nml-Asp-Arg-Aml-NH2] (HELM PEPTIDE1{[CCCCCCCC(=O)[*:2]].[dA].F.[dL].L.[Hyp].[meL].D.R.[CC(C)CC(C)(N[*:1])C(=O)[*:2]].[am]}$$$$V2.0)
CCCCCCCC(=O)N[C@H](C)C(=O)N[C@@H](Cc1ccccc1)C(=O)N[C@H](CC(C)C)C(=O)N[C@@H](CC(C)C)C(=O)N1C[C@H](O)C[C@H]1C(=O)N(C)[C@@H](CC(C)C)C(=O)N[C@@H](CC(=O)O)C(=O)N[C@@H](CCCNC(=N)N)C(=O)NC(CC)(CC)C(N)=O [JAL-1416, Occ-ala-Phe-leu-Leu-Hyp-Nml-Asp-Arg-Deg-NH2] (HELM PEPTIDE1{[CCCCCCCC(=O)[*:2]].[dA].F.[dL].L.[Hyp].[meL].D.R.[CCC(CC)(N[*:1])C(=O)[*:2]].[am]}$$$$V2.0)
CCCCCCCC(=O)N[C@H](C)C(=O)N[C@@H](Cc1ccccc1)C(=O)N[C@H](CC(C)C)C(=O)N[C@@H](CC(C)C)C(=O)N1C[C@H](O)C[C@H]1C(=O)N(C)[C@@H](CC(C)C)C(=O)N[C@@H](CC(=O)O)C(=O)N(C)[C@@H](CCCNC(=N)N)C(=O)N[C@H](C(N)=O)[C@@H](C)CC [JAL-1417, Occ-ala-Phe-leu-Leu-Hyp-Nml-Asp-Nmr-Ile-NH2] (HELM PEPTIDE1{[CCCCCCCC(=O)[*:2]].[dA].F.[dL].L.[Hyp].[meL].D.[meR].I.[am]}$$$$V2.0)
CCCCCCCC(=O)N[C@H](C)C(=O)N[C@@H](Cc1ccccc1)C(=O)NC1(C(=O)N[C@@H](CC(C)C)C(=O)N2C[C@H](N)C[C@H]2C(=O)N(C)[C@@H](CC(C)C)C(=O)N[C@@H](CC(=O)O)C(=O)N2CCC[C@H]2C(=O)N[C@H](C(N)=O)[C@@H](C)CC)CCNCC1 [JAL-1452, Occ-ala-Phe-Apc-Leu-Tap-Nml-Asp-Pro-Ile-NH2] (Octanoyl-[dA]F[Api]L[Pro(4R-NH2)][NMeL]DPI-NH2)
CCCCCCCC(=O)N[C@H](C)C(=O)N[C@@H](Cc1ccccc1)C(=O)N[C@H](CN(C)C)C(=O)N[C@@H](CC(C)C)C(=O)N1C[C@H](N)C[C@H]1C(=O)N(C)[C@@H](CC(C)C)C(=O)N[C@@H](CC(=O)O)C(=O)N1CCC[C@H]1C(=O)N[C@H](C(N)=O)[C@@H](C)CC [JAL-1453, Occ-ala-Phe-dap(Me2)-Leu-Tap-Nml-Asp-Pro-Ile-NH2] (Octanoyl-[dA]F[dDap(Me2)]L[Pro(4R-NH2)][NMeL]DPI-NH2)
CCCCCCCC(=O)N[C@H](C)C(=O)N[C@@H](Cc1ccccc1)C(=O)NC1(C(=O)N[C@@H](CC(C)C)C(=O)N2C[C@H](N)C[C@H]2C(=O)N(C)[C@@H](CC(C)C)C(=O)N[C@@H](CC(=O)O)C(=O)N[C@@H](CCCNC(=N)N)C(=O)N[C@H](C(N)=O)[C@@H](C)CC)CCCCC1 [JAL-1454, Occ-ala-Phe-Egz-Leu-Tap-Nml-Asp-Arg-Ile-NH2] (Octanoyl-[dA]F[Ac6c]L[Pro(4R-NH2)][NMeL]DRI-NH2)
CCCCCCCC(=O)N[C@H](C)C(=O)N[C@@H](Cc1ccccc1)C(=O)N[C@H](CNCC(C)(C)C)C(=O)N[C@@H](CC(C)C)C(=O)N1C[C@H](N)C[C@H]1C(=O)N(C)[C@@H](CC(C)C)C(=O)N[C@@H](CC(=O)O)C(=O)N[C@@H](CCCNC(=N)N)C(=O)N[C@H](C(N)=O)[C@@H](C)CC [JAL-1463, Occ-ala-Phe-dap(1464)-Leu-Tap-Nml-Asp-Arg-Ile-NH2] (Octanoyl-[dA]F[X12]L[Pro(4R-NH2)][NMeL]DRI-NH2)
CCCCCCCC(=O)N1CCC[C@H](C(=O)N[C@@H](Cc2ccc(F)cc2)C(=O)N[C@H](CC(C)C)C(=O)N[C@@H](CC(C)C)C(=O)N2C[C@H](O)C[C@H]2C(=O)N(C)[C@@H](CC(C)C)C(=O)N[C@@H](CC(=O)O)C(=O)N[C@@H](CCCNC(=N)N)C(=O)N[C@H](C(N)=O)[C@@H](C)CC)C1 [JAL-1487, Occ-Sni-Pff-leu-Leu-Hyp-Nml-Asp-Arg-Ile-NH2] (Octanoyl-[X2][Phe(4-F)][dL]L[Hyp][NMeL]DRI-NH2)
CCCCCCCC(=O)N1CCC[C@H](C(=O)N[C@@H](Cc2ccc(Cl)cc2)C(=O)N[C@H](CC(C)C)C(=O)N[C@@H](CC(C)C)C(=O)N2C[C@H](O)C[C@H]2C(=O)N(C)[C@@H](CC(C)C)C(=O)N[C@@H](CC(=O)O)C(=O)N[C@@H](CCCNC(=N)N)C(=O)N[C@H](C(N)=O)[C@@H](C)CC)C1 [JAL-1493, Occ-Sni-Pcf-leu-Leu-Hyp-Nml-Asp-Arg-Ile-NH2] (Octanoyl-[X2][Phe(4-Cl)][dL]L[Hyp][NMeL]DRI-NH2)
CCCCCCCC(=O)N1CCC[C@H](C(=O)N[C@@H](Cc2ccc(C)cc2)C(=O)N[C@H](CC(C)C)C(=O)N[C@@H](CC(C)C)C(=O)N2C[C@H](O)C[C@H]2C(=O)N(C)[C@@H](CC(C)C)C(=O)N[C@@H](CC(=O)O)C(=O)N[C@@H](CCCNC(=N)N)C(=O)N[C@H](C(N)=O)[C@@H](C)CC)C1 [JAL-1494, Occ-Sni-Pmf-leu-Leu-Hyp-Nml-Asp-Arg-Ile-NH2] (Octanoyl-[X2][Phe(4-Me)][dL]L[Hyp][NMeL]DRI-NH2)
